Measurements reported in ChEMBL document CHEMBL5335789, “Tea-break with epigallocatechin gallate derivatives - Powerful polyphenols of great potential for medicine” (Eur J Med Chem, 2023).

Legend:
LNCaP = test: Antiproliferative activity against human LNCaP assessed as reduction in cell viability incubated for 72 hrs by MTT assay; format: functional, cell-based
KB = test: Antitumor activity against human KB cells assessed as inhibition of cell growth measured upto 96 hrs in presence of thymidine by Cell titer blue assay; format: functional; design: scale not given: the % may be the effect or the level left
[1] = molecular target: MAP kinase p38 (Homo sapiens) (UniProt O15264+Q15759+Q16539+P53778); test: Inhibition of p38-MAPK (unknown origin) at 30 uM relative to control; format: protein assay
[2] = Inhibition of ERK (unknown origin) at 100 uM by western blot assay relative to control; conditions: Homo sapiens
Homo sapiens = species: Homo sapiens; test: Inhibition of PI3K/AKT/NF-kappaB (unknown origin) at 30 uM relative to control
MDA-MB-231 [3] = test: Inhibition of cell adhesion in human MDA-MB-231 cells assessed as reduction in cell adhesion at 10 uM relative to control; format: functional; design: scale not given: the % may be the effect or the level left
MDA-MB-231 [4] = test: Inhibition of cell invasion of human MDA-MB-231 cells at 10 uM incubated for 24 hrs by crystal violet staining based analysis; format: functional; design: scale not given: the % may be the effect or the level left
MDA-MB-231 [5] = test: Inhibition of cell migration in human MDA-MB-231 cells measured upto 48 hrs by transwell chamber assay relative to control; format: functional; design: scale not given: the % may be the effect or the level left
MDA-MB-231 [6] = test: Cytotoxicity against human MDA-MB-231 cells assessed as cell growth inhibition incubated for 48 hrs by SRB assay; format: functional, cell-based; conditions: MDA-MB-231, 48 h
[7] = Inhibition of Streptococcus sobrinus glycosyl transferase
U-937 [8] = test: Antiproliferative activity against human U-937 cells assessed as cell growth inhibition measured after 72 hrs; format: functional, cell-based; conditions: U-937, 72 h
U-937 [9] = test: Antiproliferative activity against human U-937 cells measured upto 72 hrs; format: functional, cell-based; conditions: U-937, 72 h
U-266 = test: Anticancer activity against human U-266 cells assessed as inhibition of cell growth; format: functional, cell-based
MDA-MB-231 [10] = test: Anticancer activity against human MDA-MB-231 cells assessed as reduction in cell viability measured after 72 hrs by MTT assay; format: functional
Jurkat = test: Antiproliferative activity against human Jurkat T cells assessed as inhibition of cell growth at 50 uM incubated for 24 hrs relative to control; format: functional; design: scale not given: the % may be the effect or the level left
NCI-H292 = test: Antiproliferative activity against human NCI-H292 cells expressing wild type EGFR assessed as reduction in cell viability incubated for 48 hrs by MTT assay; format: functional, cell-based; conditions: NCI-H292, 48 h
NCI-H441 = test: Antiproliferative activity against human NCI-H441 cells expressing wild type EGFR assessed as reduction in cell viability incubated for 48 hrs by MTT assay; format: functional, cell-based; conditions: NCI-H441, 48 h
[11] = Antiproliferative activity against human NCI-H1781 cells expressing wild type EGFR assessed as reduction in cell viability incubated for 48 hrs by MTT assay; format: functional, cell-based; conditions: NCI-H1781, 48 h
A549 = test: Antiproliferative activity against human A549 cells expressing wild type EGFR assessed as reduction in cell viability incubated for 48 hrs by MTT assay; format: functional, cell-based; conditions: A549, 48 h
MDA-MB-231 [12] = test: Antitumor activity against human MDA-MB-231 cells xenografted in athymic nude mouse assessed as the inhibition of tumor growth at 50 mg/kg, sc administered daily once for 31 days relative to control; format: functional; design: scale not given: the % may be the effect or the level left; conditions: time 31 day
HCT-116 = test: Antiproliferative activity against human HCT-116 cells assessed as reduction in cell viability incubated for 24 hrs by MTT assay; format: functional, cell-based; conditions: HCT-116, 24 h
K562 = test: Antiproliferative activity against human K562 cells assessed as reduction in cell viability incubated for 48 hrs by MTT assay; format: functional, cell-based; conditions: K562, 48 h

`O=C(O[C@@H]1Cc2c(O)cc(O)cc2O[C@@H]1c1ccc(O)c(O)c1)c1cc(O)c(O)c(O)c1` [EPICATECHIN GALLATE] showed an IC50 (LNCaP) of 36 µM.
`O=C(O[C@@H]1Cc2c(O)cc(O)cc2O[C@@H]1c1cc(O)c(O)c(O)c1)c1cc(O)c(O)c(O)c1` [EPIGALOCATECHIN GALLATE] gave an Activity (KB) of 70%, an inhibition [1] of 45% and an inhibition [2] of 25%. It also gave an inhibition (Homo sapiens) of 25%, an Activity (MDA-MB-231 [3]) of 40% and an Activity (MDA-MB-231 [4]) of 56%. It also gave an Activity (MDA-MB-231 [5]) of 40%, an IC50 (MDA-MB-231 [6]) of 149 µM and an IC50 [7] of 89.5 µM.
Work on `O=C(Nc1c(-c2ccc(O)c(O)c2)oc2ccccc2c1=O)c1ccc(O)c(O)c1` yielded an IC50 (U-937 [8]) of 37 µM and an IC50 (U-937 [9]) of 0.38 µM.
Work on `O=C(Oc1ccc(OC(=O)c2cc(O)c(O)c(O)c2)c2ccccc12)c1cc(O)c(O)c(O)c1` yielded an IC50 (MDA-MB-231 [6]) of 104 µM.
`COc1ccc2c(c1)O[C@H](c1cc(OC)c(O)c(OC)c1)[C@H](OC(=O)c1cc(O)c(O)c(O)c1)C2` showed an IC50 (U-266) of 0.64 µM.
`O=C(Nc1cccc(NC(=O)c2cccc(O)c2O)c1)c1cccc(O)c1O` gave an IC50 (U-937 [8]) of 1.7 µM and an IC50 (U-937 [9]) of 0.67 µM.
With `CC(=O)Oc1cc(OC(C)=O)c2c(c1)O[C@H](c1cc(OC(C)=O)c(OC(C)=O)c(OC(C)=O)c1)[C@H](OC(=O)c1ccc(F)c(F)c1)C2` the Activity (MDA-MB-231 [10]) was 33% and the Activity (Jurkat) was 90%.
`O=C(O[C@@H]1Cc2c(O)cc(O)cc2O[C@@H]1c1cc(O)c(O)c(O)c1)c1cc(O)c(OCc2cn([C@H]3O[C@H](CO)[C@@H](O)[C@H](O)[C@H]3O)nn2)c(O)c1` showed an IC50 (NCI-H292) of 30 µM, an IC50 (NCI-H441) of 30 µM and an IC50 [11] of 30 µM. For the same molecule, the IC50 (A549) was 30 µM.
Work on `O=C(O[C@@H]1Cc2c(F)cc(F)cc2O[C@@H]1c1ccc(O)c(O)c1)c1cc(O)c(O)c(O)c1` yielded an IC50 (LNCaP) of 13 µM.
In the case of `O=C(Oc1cc(O)c2ccccc2c1)c1cc(O)c(O)c(O)c1`, the IC50 (MDA-MB-231 [6]) is reported as 41 µM.
In the case of `CC(=O)Oc1cc(OC(C)=O)c2c(c1)O[C@H](c1cc(OC(C)=O)c(OC(C)=O)c(OC(C)=O)c1)[C@H](OC(=O)c1cc(OC(C)=O)c(OC(C)=O)c(OC(C)=O)c1)C2`, the Activity (MDA-MB-231 [12]) is reported as 54%.
`O=C(O[C@@H]1Cc2c(O)cc(O)cc2O[C@@H]1c1cc(O)c(=O)c2c(O)c(O)cc([C@H]3Oc4cc(O)cc(O)c4C[C@H]3OC(=O)c3cc(O)c(O)c(O)c3)c2c1)c1cc(O)c(O)c(O)c1` [THEAFLAVIN DIGALLATE] gave an IC50 (HCT-116) of 120 µM.
`O=C(Oc1cc(OC(=O)c2cc(O)c(O)c(O)c2)c2ccccc2c1)c1cc(O)c(O)c(O)c1` showed an IC50 (MDA-MB-231 [6]) of 77 µM.
Molecule `CCCCCCCCCCCCCCCC(=O)Oc1cc([C@H]2Oc3cc(O)cc(O)c3C[C@H]2OC(=O)c2cc(O)c(O)c(O)c2)cc(O)c1O` has an IC50 (K562) of 17 µM.
With `O=C(O[C@@H]1Cc2c(O)cc(O)cc2O[C@@H]1c1cc(O)c(=O)c2c(O)c(O)c(O)cc2c1)c1cc(O)c(O)c(O)c1` the IC50 [7] was 11 µM.
